Data published in patent US20260285850A1, “SUBSTITUTED OXAZOLIDINONES AND IMIDAZOLINONES AS HERBICIDES” (FMC CORPORATION, priority 2023, published 2026).

Legend:
Format in all cases: in vivo
[1] = tested on: barnyardgrass (Echinochloa crus-galli); assay: Test A preemergence soil spray, visual injury rating 0-100; details: 10 days
Outline: (§1)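 Rating: visual, day 10, untreated plants as reference, 0 no effect to 100 full control. Plants were in loam-sand and were treated either preemergence via directed soil spray or postemergence at the one- to two-leaf stage.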

[2] = tested on: blackgrass (Alopecurus myosuroides); assay: as above; details: 10 days
Outline: as §1

[3] = tested on: corn (Zea mays); assay: as above; details: 10 days
Outline: as §1

[4] = tested on: green foxtail (Setaria viridis); assay: as above; details: 10 days
Outline: as §1

[5] = tested on: kochia (Bassia scoparia); assay: as above; details: 10 days
Outline: as §1

[6] = tested on: oat, wild (wild oat, Avena fatua); assay: as above; details: 10 days
Outline: as §1

[7] = tested on: palmer (palmer amaranth, palmer pigweed, Amaranthus palmeri); assay: as above; details: 10 days
Outline: as §1

[8] = tested on: ragweed (common ragweed, Ambrosia artemisiifolia); assay: as above; details: 10 days
Outline: as §1

[9] = tested on: ryegrass, Italian (italian ryegrass, Lolium multiflorum); assay: as above; details: 10 days
Outline: as §1

[10] = tested on: soybean (Glycine max); assay: as above; details: 10 days
Outline: as §1

[11] = tested on: wheat (Triticum aestivum); assay: as above; details: 10 days
Outline: as §1

[12] = tested on: barnyardgrass (Echinochloa crus-galli); assay: Test A postemergence application, visual injury rating 0-100
Outline: as §1

[13] = tested on: blackgrass (Alopecurus myosuroides); assay: as above
Outline: as §1

[14] = tested on: corn (Zea mays); assay: as above
Outline: as §1

[15] = tested on: galium (catchweed bedstraw, Galium aparine); assay: as above
Outline: as §1

[16] = tested on: green foxtail (Setaria viridis); assay: as above
Outline: as §1

[17] = tested on: horseweed (Erigeron canadensis); assay: as above
Outline: as §1

[18] = tested on: kochia (Bassia scoparia); assay: as above
Outline: as §1

[19] = tested on: oat, wild (wild oat, Avena fatua); assay: as above
Outline: as §1

[20] = tested on: palmer (palmer amaranth, palmer pigweed, Amaranthus palmeri); assay: as above
Outline: as §1

[21] = tested on: ragweed (common ragweed, Ambrosia artemisiifolia); assay: as above
Outline: as §1

[22] = tested on: ryegrass, Italian (italian ryegrass, Lolium multiflorum); assay: as above
Outline: as §1

[23] = tested on: soybean (Glycine max); assay: as above
Outline: as §1

[24] = tested on: wheat (Triticum aestivum); assay: as above
Outline: as §1

[25] = tested on: barnyardgrass (Echinochloa crusgalli); assay: Test B flooded paddy test, visual plant response rating 0-100; details: 250 g ai/ha, Flood, applied to paddy water, evaluated after 13 days
Outline: (§2)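 Visual scores versus untreated controls were recorded 13 days after treatment of greenhouse-held plants. At the 2-leaf stage, pots were flooded 3 cm above the soil surface and compounds added straight to the water.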

[26] = tested on: ducksalad (Heteranthera limosa); assay: as above; details: 250 g ai/ha, Flood, applied to paddy water, evaluated after 13 days
Outline: as §2

[27] = tested on: rice (Oryza sativa); assay: as above; details: 250 g ai/ha, Flood, applied to paddy water, evaluated after 13 days
Outline: as §2

[28] = tested on: sedge, umbrella (small-flower umbrella sedge, Cyperus difformis); assay: as above; details: 250 g ai/ha, Flood, applied to paddy water, evaluated after 13 days
Outline: as §2

[29] = 62 g ai/ha, 0 = no effect, 100 = complete control
[30] = 62 g ai/ha, postemergence, 10 days, 0 = no effect, 100 = complete control
[31] = Postemergence, 16 g ai/ha, greenhouse 10 days, 0 no effect, 100 complete control

C=CC1(C(=O)NC2C=CC(C(=O)OC)C2)CN(c2cc(F)cc(F)c2)C(=O)O1 (single isomer, unassigned) [Compound 167]
Barnyardgrass plant response rating ([1]; 16 g ai/ha, 0 to 100 scale): 60
Barnyardgrass plant response rating (0-100) [1, 29]: 100
Blackgrass plant response rating ([2]; 16 g ai/ha, 0 to 100 scale): 30
Blackgrass plant response rating (0-100) [2, 29]: 70
Corn plant response rating ([3]; 16 g ai/ha, 0 to 100 scale): 40
Corn plant response rating (0-100) [3, 29]: 90
Foxtail, Green plant response rating ([4]; 16 g ai/ha, 0 to 100 scale): 90
Foxtail, Green plant response rating (0-100) [4, 29]: 100
Kochia plant response rating ([5]; 16 g ai/ha, 0 to 100 scale): 70
Kochia plant response rating (0-100) [5, 29]: 100
Oat, Wild plant response rating ([6]; 16 g ai/ha, 0 to 100 scale): 50
Oat, Wild plant response rating (0-100) [6, 29]: 90
Pigweed, Palmer plant response rating ([7]; 16 g ai/ha, 0 to 100 scale): 100
Pigweed, Palmer plant response rating (0-100) [7, 29]: 100
Ragweed plant response rating ([8]; 16 g ai/ha, 0 to 100 scale): 60
Ragweed plant response rating (0-100) [8, 29]: 90
Ryegrass, Italian plant response rating ([9]; 16 g ai/ha, 0 to 100 scale): 80
Ryegrass, Italian plant response rating (0-100) [9, 29]: 90
Soybean plant response rating ([10]; 16 g ai/ha, 0 to 100 scale): 70
Soybean plant response rating (0-100) [10, 29]: 80
Wheat plant response rating ([11]; 16 g ai/ha, 0 to 100 scale): 70
Wheat plant response rating (0-100) [11, 29]: 90
Barnyardgrass plant response rating (0-100) [12, 30]: 90
Barnyardgrass plant response rating (0 to 100 scale) [12, 31]: 90
Blackgrass plant response rating (0-100) [13, 30]: 90
Blackgrass plant response rating (0 to 100 scale) [13, 31]: 80
Corn plant response rating (0-100) [14, 30]: 100
Corn plant response rating (0 to 100 scale) [14, 31]: 100
Galium plant response rating (0-100) [15, 30]: 80
Galium plant response rating (0 to 100 scale) [15, 31]: 80
Foxtail, Green plant response rating (0-100) [16, 30]: 90
Foxtail, Green plant response rating (0 to 100 scale) [16, 31]: 90
Horseweed plant response rating (0-100) [17, 30]: 80
Horseweed plant response rating (0 to 100 scale) [17, 31]: 80
Kochia plant response rating (0-100) [18, 30]: 80
Kochia plant response rating (0 to 100 scale) [18, 31]: 80
Oat, Wild plant response rating (0-100) [19, 30]: 90
Oat, Wild plant response rating (0 to 100 scale) [19, 31]: 90
Pigweed, Palmer plant response rating (0-100) [20, 30]: 90
Pigweed, Palmer plant response rating (0 to 100 scale) [20, 31]: 90
Ragweed plant response rating (0-100) [21, 30]: 80
Ragweed plant response rating (0 to 100 scale) [21, 31]: 70
Ryegrass, Italian plant response rating (0-100) [22, 30]: 90
Ryegrass, Italian plant response rating (0 to 100 scale) [22, 31]: 80
Soybean plant response rating (0-100) [23, 30]: 80
Soybean plant response rating (0 to 100 scale) [23, 31]: 80
Wheat plant response rating (0-100) [24, 30]: 90
Wheat plant response rating (0 to 100 scale) [24, 31]: 90
Plant response rating, Barnyardgrass (0 to 100 scale, 0 is no effect and 100 is complete control) [25]: 90
Plant response rating, Ducksalad (0 to 100 scale, 0 is no effect and 100 is complete control) [26]: 98
Plant response rating, Rice (0 to 100 scale, 0 is no effect and 100 is complete control) [27]: 98
Plant response rating, Sedge, Umbrella (0 to 100 scale, 0 is no effect and 100 is complete control) [28]: 98
